The values below come from EP1566447A1, “Glimepiride- and insulin-induced glycosylphosphatidylinositol-specific phospholipase C regulation” (priority 2004, dated 2005).

In series [1] the test system is GPI-PLC of hcDIGs from rat adipocytes. Nature of the series: adipocyte GPI-PLC assay (cleavage of AChE, TX-114 partitioning). In kind it is biochemical. The following applies: 1 mM; hcDIGs from rat adipocytes. How it is done:
Biophys. […] Each reaction mixture was subjected to TX-114 partitioning (see below).
After incubation for 1 h on ice, the mixture was layered onto a cushion of 0.4 ml of 0.25 M sucrose and 25 mM Tris/HCl (pH 7.4) on ice.
Cleavage rate was calculated from the amount of hydrophilic AChE and aP activity recovered with the TX-114-depleted phase upon TX-114 partitioning.

In series [2] the test system is patients with type 2 diabetes. The following applies: cited from earlier work.
The next series deals with rat adipocytes. Nature of the series: isoproterenol-induced lipolysis measured as release of NBD-FA. In kind it is cell-based. To be noted: 50 µM; Fig. 9 Panels A, B. As to the method: Electroporation was performed as described in "Müller, G. et al., (2000) Mol. Cell. Biol. 20: 4708-4723". Lipolysis was determined as release of glycerol or fluorescent NBD-FA from prelabeled and isoproterenol-stimulated adipocytes as described in "Müller, G. et al., (2003) Biochimie 85: 1245-1256". Gce1 was detected by photolabeling of solubilized plasma membranes or hc/IcDIGs (10-50 µg protein) with 8-N3-[^32P]cAMP and subsequent phosphorimaging as described in "Müller, G. et al., (1994) Biochemistry 33: 12149-12159". 5'-Nuc, aP and AChE activities were measured according to "Eliakim, R. et al., (1990) Biochim. Biophys. Acta […]". Protein was determined using the BCA protein determination kit from Pierce (Rockford, IL) and BSA as calibration standard. SDS-PAGE was performed using precast gels (Novex, San Diego, CA; 10 % Bis-Tris resolving gel, morpholinopropanesulfonic acid-SDS running buffer). Lumiimages were evaluated on a Lumilmager using Lumilmager software (Roche Diagnostics). Phosphor- and fluorescence images were processed and quantified using the Storm 860 Phosphorlmager system (Molecular Dynamics, Gelsenkirchen, Germany). Figures were constructed using the Adobe Photoshop software (Adobe Systems, Mountain View, CA). […]

For the compound `CCCCCCCCCCCCP(=O)(OC)O[C@@H]1[C@H](O)[C@H](O)[C@@H](O)[C@H](O)[C@H]1O` (stereo partly drawn) [GPI-2349, myo-inositol-1-O-dodecylphosphonic acid methylester], the “inhibition % at 1 mM” value in series [1] came to 27 ± 6%.

For `CCC1=C(C)CN(C(=O)NCCc2ccc(S(=O)(=O)NC(=O)N[C@H]3CC[C@H](C)CC3)cc2)C1=O` [Glimepiride, glimepiride], in series [2] (monotherapy, treated for ≤1 year), the “hypoglycaemia occurred in patients” value is recorded as 10 to 20%. For the same compound, the effective dosage range in series [2] (patients with type 2 diabetes) was 0.5 to 8 mg/day. The “activation of GPI-PLC” value with GPI-PLC (direct incubation of hcDIGs from untreated adipocytes, Fig. 4 Panel A) was “up to 4 fold”. Also, the “stimulation of GPI-PLC activity” value in the series with GPI-PLC (hcDIGs prepared from pretreated adipocytes, Fig. 4 Panel C, 20 µM) was found to be 3 fold. Also, the “effect on the glimepiride-induced reduction of NBD-FA release” value in the series on rat adipocytes is listed as “completely abrogated”.
